Assay results from patent publication US10988474B2, “Compounds acting at multiple prostaglandin receptors giving a general anti-inflammatory response” (ALLERGAN, INC., priority 2011, dated 2021).

Key:
Type in all cases: cell-based
[1] = molecular target: T1, human prostanoid EP2 receptor (Homo sapiens, UniProt P43116); assay: FLIPR Ca2+ signaling PG antagonist assay, EP2 stable cell line; details: HEK-293 EBNA cells, human recombinant EP2 with chimeric Gqs; standard agonist PGE2
T1 construct: expressed in transfected cells
T1 sequence (P43116 whole entry): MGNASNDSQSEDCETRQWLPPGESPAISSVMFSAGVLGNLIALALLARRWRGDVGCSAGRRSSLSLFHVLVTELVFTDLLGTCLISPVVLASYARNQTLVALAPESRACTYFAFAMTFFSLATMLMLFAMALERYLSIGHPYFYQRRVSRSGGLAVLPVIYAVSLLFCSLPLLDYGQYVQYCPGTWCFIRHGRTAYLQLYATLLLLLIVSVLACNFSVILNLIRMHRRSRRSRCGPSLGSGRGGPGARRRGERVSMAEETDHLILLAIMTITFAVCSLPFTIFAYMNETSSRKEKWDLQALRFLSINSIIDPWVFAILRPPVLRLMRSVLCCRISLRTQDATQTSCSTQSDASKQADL
Method: (§1) The above compounds were tested for PG antagonist activity as follows using human recombinant prostanoid receptor (DP1, EP1-4, FP, IP and TP) stable cell lines: In order to measure the response of Gs and Gi coupled prostanoid receptors as a Ca^2+ signal, chimeric G protein cDNAs were used. Stable cell lines over-expressing human prostanoid DP1, EP1-4, FP, IP, and TP receptors were established as follows:
(§2) Briefly, human prostanoid DP1, EP2, and EP4 receptor cDNAs were co-transfected with chimeric Gqs cDNA containing a haemagglutanin (HA) epitope; human prostanoid EP3 receptors were co-transfected with chimeric Gqi-HA; human EP1, FP, IP, and TP receptor cDNAs were expressed with no exogenous G-proteins. Gqs and Gqi chimeric cDNAs (Molecular Devices, Sunnyvale, Calif., U.S.A.), as well as cDNAs of prostanoid receptors, were cloned into a pCEP4 vector with a hygromycin B selection marker. Transfection into HEK-293 EBNA (Epstein-Barr virus nuclear antigen) cells was achieved by the FuGENE 6 transfection Reagent (Roche Applied Science, Indianapolis, Ind., USA). Stable transfectants were selected according to hygromycin resistance. Because Gqs and Gqi contained an HA epitope, G-protein expression was detected by Western blotting analysis using anti-mouse HA monoclonal antibody and horseradish peroxidase (HRP)-conjugated secondary antibody, while functional expression of prostanoid receptors was detected by FLIPR screening (Matias et al., 2004). These stable cell lines were validated using previously published antagonists at 10 μM against serial dilutions of standard agonists by FLIPR functional assays for Ca^2+ Signaling (as described below).
(§3) Ca^2+ signaling studies were performed using a FLIPR TETRA system (Molecular Devices, Sunnyvale, Calif., USA) in the 384-format. This is a high-throughput instrument for cell-based assays to monitor Ca^2+ signaling associated with GPCRs and ion channels. Cells were seeded at a density of 5×10^4 cells/well in BioCoat poly-D-lysine coated, black wall, clear bottom 384-well plates (BD Biosciences, Franklin lakes, NJ, USA) and allowed to attach overnight in an incubator at 37° C. The cells were then washed twice with HBSS-HEPES buffer (Hanks' balanced salt solution without bicarbonate and phenol red, 20 mM HEPES, pH 7.4) using an ELx405 Select CW Microplate Washer (BioTek, Winooski, Vt., USA). After 60 min of dye-loading in the dark using the Ca^2+-sensitive dye Fluo-4AM (Invitrogen, Carlsbad, Calif., USA), at a final concentration of 2×10^−6M, the plates were washed 4 times with HBSS-HEPES buffer to remove excess dye and leaving 50 μl of buffer in each well. The plates were then placed in the FLIPR TETRA instrument and allowed to equilibrate at 37° C. Compounds were added in a 25 μl volume to each well to give final concentrations of 0.1 μM, 0.3 μM, 1 μM, 3 μM, 10 μM, and 30 μM; or 0.067 μM, 0.1 μM, 0.2 μM, 0.3 μM, 0.67 μM, and 1 μM for cells over-expressing TP receptors. After 4.5 minutes, a 7-point serial dilution of the standard agonist for the corresponding receptor, in a 25 μl volume was injected at the final concentrations from 10^−11M to 10^−5M in 10-fold serial dilution increments for cells expressing human recombinant DP1, EP1, EP2, EP3, EP4, FP, and IP receptors. The dose range for the standard agonist for human recombinant TP receptors was from 10^−12M to 10^−6M. HBSS-HEPES buffer was used as the negative control for the standard agonists. Cells were excited with LED (light emitting diode) excitation at 470-495 nm and emission was measured through an emission filter at 515-575 nm. Assay plates were read for 3.5 minutes using the FLIPR^TETRA. The peak increase in fluorescence intensity was recorded for each well. On each plate, negative controls, dose response of positive controls, and co-treatments of antagonist-agonist for each dose were in triplicates. Standard agonists were as follows: DP=BW 245C, EP1-EP4=PGE2, FP=17-phenyl-PGF2α, IP=Cicaprost, and TP=U-46619. […]

[2] = molecular target: T2, human prostanoid EP1 receptor (Homo sapiens, UniProt P34995); assay: FLIPR Ca2+ signaling PG antagonist assay, EP1 stable cell line; details: HEK-293 EBNA cells, human recombinant EP1, no exogenous G-protein; standard agonist PGE2
T2 construct: expressed in transfected cells
T2 sequence (P34995 1-402): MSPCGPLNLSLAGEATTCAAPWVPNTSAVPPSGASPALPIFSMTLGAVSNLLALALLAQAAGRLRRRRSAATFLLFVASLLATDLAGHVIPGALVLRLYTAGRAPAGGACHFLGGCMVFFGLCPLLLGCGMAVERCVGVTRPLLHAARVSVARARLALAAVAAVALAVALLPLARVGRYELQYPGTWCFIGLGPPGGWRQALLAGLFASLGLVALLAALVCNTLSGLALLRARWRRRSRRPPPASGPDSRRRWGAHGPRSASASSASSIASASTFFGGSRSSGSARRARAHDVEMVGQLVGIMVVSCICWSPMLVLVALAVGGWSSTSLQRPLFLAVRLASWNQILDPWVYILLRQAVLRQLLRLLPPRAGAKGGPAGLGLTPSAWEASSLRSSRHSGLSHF
Method: as §1, §2, §3

[3] = molecular target: T3, human prostanoid DP1 receptor (Homo sapiens, UniProt Q13258); assay: FLIPR Ca2+ signaling PG antagonist assay, DP1 stable cell line; details: HEK-293 EBNA cells, human recombinant DP1 with chimeric Gqs, standard agonist BW 245C; for Kb: read-out: DP (Kb, PG antagonist activity)
T3 construct: expressed in transfected cells
T3 sequence (Q13258 1-359): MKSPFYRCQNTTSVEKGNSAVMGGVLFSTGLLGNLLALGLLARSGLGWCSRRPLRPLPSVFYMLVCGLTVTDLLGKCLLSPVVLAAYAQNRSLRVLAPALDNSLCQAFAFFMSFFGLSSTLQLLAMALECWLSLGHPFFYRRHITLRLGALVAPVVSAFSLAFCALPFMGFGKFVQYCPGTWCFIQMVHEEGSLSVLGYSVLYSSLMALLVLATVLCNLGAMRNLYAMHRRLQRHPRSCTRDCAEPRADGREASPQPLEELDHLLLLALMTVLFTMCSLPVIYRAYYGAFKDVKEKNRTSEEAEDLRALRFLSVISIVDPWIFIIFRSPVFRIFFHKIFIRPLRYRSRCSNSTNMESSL
Method in brief: (§4)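 Stable HEK-293 EBNA lines (DP1 with chimeric Gqs, EP3 with Gqi, EP1 and FP without exogenous G protein) were Fluo-4AM-loaded and pretreated 4.5 min at 37 °C with compound (0.1–30 μM). Agonist (BW 245C for DP1, PGE2 for EP1/EP3, 17-phenyl-PGF2α for FP) was then added at 10^−11–10^−5 M. Peak Ca2+ fluorescence was taken relative to agonist at 10^−6 M.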

[4] = molecular target: T4, human prostanoid EP4 receptor (Homo sapiens, UniProt P35408); assay: FLIPR Ca2+ signaling PG antagonist assay, EP4 stable cell line; details: HEK-293 EBNA cells, human recombinant EP4 with chimeric Gqs; standard agonist PGE2
T4 construct: expressed in transfected cells
T4 sequence (P35408 whole entry): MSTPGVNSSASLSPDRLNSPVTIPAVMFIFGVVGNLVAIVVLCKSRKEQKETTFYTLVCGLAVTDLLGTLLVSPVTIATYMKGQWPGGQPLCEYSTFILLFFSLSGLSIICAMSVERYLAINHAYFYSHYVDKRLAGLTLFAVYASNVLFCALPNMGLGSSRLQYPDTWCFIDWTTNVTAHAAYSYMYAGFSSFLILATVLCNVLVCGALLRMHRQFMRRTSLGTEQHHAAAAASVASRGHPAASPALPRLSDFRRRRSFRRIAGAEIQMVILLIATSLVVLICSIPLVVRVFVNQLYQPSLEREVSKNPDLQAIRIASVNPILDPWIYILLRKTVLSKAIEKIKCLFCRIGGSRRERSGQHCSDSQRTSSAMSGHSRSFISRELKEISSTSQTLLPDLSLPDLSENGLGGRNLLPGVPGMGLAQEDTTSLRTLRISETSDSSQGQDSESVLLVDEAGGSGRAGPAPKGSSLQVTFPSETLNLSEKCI
Method: as §1, §2, §3

[5] = molecular target: T5, human prostanoid FP receptor (Homo sapiens, UniProt P43088); assay: FLIPR Ca2+ signaling PG antagonist assay, FP stable cell line; details: HEK-293 EBNA cells, human recombinant FP, no exogenous G-protein; standard agonist 17-phenyl-PGF2α
T5 construct: expressed in transfected cells
T5 sequence (P43088 whole entry): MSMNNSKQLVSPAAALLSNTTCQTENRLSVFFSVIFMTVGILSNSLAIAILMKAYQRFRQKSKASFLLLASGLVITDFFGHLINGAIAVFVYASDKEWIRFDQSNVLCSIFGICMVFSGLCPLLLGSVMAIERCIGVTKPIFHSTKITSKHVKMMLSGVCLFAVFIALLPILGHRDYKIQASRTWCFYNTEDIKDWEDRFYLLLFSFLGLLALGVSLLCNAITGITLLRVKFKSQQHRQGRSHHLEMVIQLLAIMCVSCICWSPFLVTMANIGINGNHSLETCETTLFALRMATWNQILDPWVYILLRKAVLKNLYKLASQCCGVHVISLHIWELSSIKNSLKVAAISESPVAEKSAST
Method in brief: as §4

DP (Kb, PG antagonist activity) [3] | SMILES | Kb [1] [nM] | Kb [2] [nM] | Kb [3] [nM] | Kb [4] [nM] | Kb [5] [nM]
 | CC(C)COc1ccc(Br)cc1Cn1ncc2ccc(C(=O)O)cc21 [Example 42, 1-(5-Bromo-2-Isobutoxy-Benzyl)-1H-Indazole-6-Carboxylic Acid] | ≥ 10000 | 24 | 160 | 1800 | 900
PAg | O=C(O)c1ccc2cnn(Cc3cc(Br)ccc3OCC3CCCC3)c2c1 [Example 44, 1-(5-Bromo-2-Cyclopentylmethoxy-Benzyl)-1H-Indazole-6-Carboxylic Acid] | ≥ 10000 | 240 |  | 3200 | 1400
 | O=C(O)c1ccc2cn(Cc3cc(Br)ccc3OCC3CCCC3)nc2c1 [Example 45, 2-(5-Bromo-2-Cyclopentylmethoxy-Benzyl)-2H-Indazole-6-Carboxylic Acid] | ≥ 10000 | 23 | 2800 | 2000 | 1400
 | CCC(CC)COc1ccc(Cl)cc1Cn1ncc2ccc(C(=O)O)cc21 [Example 46, 1-[5-Chloro-2-(2-Ethyl-Butoxy)-Benzyl]-1H-Indazole-6-Carboxylic Acid] | ≥ 10000 | 7100 | 2500 | ≥ 10000 | ≥ 10000
 | CC(C)COc1c(F)cc(Cl)cc1Cn1ncc2cc(C(=O)O)ccc21 [Example 47, 1-(5-Chloro-3-Fluoro-2-Isobutoxy-Benzyl)-1H-Indazole-5-Carboxylic Acid] | ≥ 10000 | 2000 | 700 | ≥ 10000 | 4700
 | CC(C)COc1ccc(S(C)(=O)=O)cc1Cn1ncc2cc(C(=O)O)ccc21 [Example 48, 1-(2-Isobutoxy-5-Methanesulfonyl-Benzyl)-1H-Indazole-5-Carboxylic Acid] | ≥ 10000 | 260 | ≥ 10000 | ≥ 10000 | ≥ 10000
 | CC(C)COc1cc(Cl)c(Cl)cc1Cn1ncc2cc(C(=O)O)ccc21 [Example 49, 1-(4,5-Dichloro-2-Isobutoxy-Benzyl)-1H-Indazole-5-Carboxylic Acid] | ≥ 10000 | 540 | 3500 | 50 | 70
 | Cc1ccc(OCC(C)C)c(Cn2ncc3cc(C(=O)O)ccc32)n1 [Example 50, 1-(3-Isobutoxy-6-Methyl-Pyridin-2-ylmethyl)-1H-Indazole-5-Carboxylic Acid] | ≥ 10000 | 90 | 2400 | 1800 | 4900
 | CCC(CC)Oc1ccc(Br)cc1Cn1ncc2cc(C(=O)O)ccc21 [Example 51, 1-[5-Bromo-2-(1-Ethyl-Propoxy)-Benzyl]-1H-Indazole-5-Carboxylic Acid] | ≥ 10000 | 70 | 600 | 270 | 110
 | CC(C)(C)COc1ccc(Br)cc1Cn1ncc2cc(C(=O)O)ccc21 [Example 52, 1-[5-Bromo-2-(2,2-Dimethyl-Propoxy)-Benzyl]-1H-Indazole-5-Carboxylic Acid] | 3800 | 24 | 2300 | 10 | 11
 | CC(C)(O)COc1ccc(Br)cc1Cn1ncc2cc(C(=O)O)ccc21 [Example 53, 1-[5-Bromo-2-(2-Hydroxy-2-Methyl-Propoxy)-Benzyl]-1H-Indazole-5-Carboxylic Acid] | ≥ 10000 | 1500 | ≥ 10000 | ≥ 10000 | 230
 | CC(C)COc1ccc(O)cc1Cn1ncc2cc(C(=O)O)ccc21 [Example 54] | ≥ 10000 | 1300 | 9900 | 2700 | 1100
 | CC(C)COc1ccc(OCC(F)F)cc1Cn1ncc2cc(C(=O)O)ccc21 [Example 55, 1-[5-(2,2-Difluoro-Ethoxy)-2-Isobutoxy-Benzyl]-1H-Indazole-5-Carboxylic Acid] | ≥ 10000 | 40 | 1200 | 2100 | 40
 | CC(C)COc1ccc(OC(F)F)cc1Cn1ncc2cc(C(=O)O)ccc21 [Example 56, 1-(5-Difluoromethoxy-2-Isobutoxy-Benzyl)-1H-Indazole-5-Carboxylic Acid] | ≥ 10000 | 24 | 1800 | 150 | 24
 | CC(C)COc1ccc(Cl)cc1Cn1ncc2cc(C(=O)O)cnc21 [Example 57, 1-(5-Chloro-2-Isobutoxy-Benzyl)-1H-Pyrazolo[3,4-B]Pyridine-5-Carboxylic Acid] | ≥ 10000 | 27 | 5500 | 1300 | 190
 | CC(C)COc1ccc(OC(F)(F)F)cc1Cn1ncc2cc(C(=O)O)cnc21 [Example 58, 1-(2-Isobutoxy-5-Trifluoromethoxy-Benzyl)-1H-Pyrazolo[3,4-B]Pyridine-5-Carboxylic Acid] | ≥ 10000 | 30 | 1800 | 380 | 60
